The subject of experiment [1] is Salmonidae. Kind of experiment: Binding affinity to Salmon testes DNA.
Experiment [2] relates to Salmonidae. Kind of experiment: Effect on Salmon testes DNA stabilization assessed as thermal denaturation at 100 uM. In kind it is functional.

As to `CCN(CC)CCNC(=O)c1cccc2c1-c1ccccc1C2=O`, the Ka with Salmonidae [1] is 7.8 10^4/M. Besides, the ΔTm in the experiment with Salmonidae [2] turned out to be 2.1 °C.
As for `CC(O)CNC(=O)c1cccc2c1-c1ccccc1C2=O` (stereo unspecified), the ΔTm in the experiment with Salmonidae [2] is 2.1 °C.
Consider `O=C(NCCO)c1cccc2c1-c1ccccc1C2=O`, for which, in the experiment on Salmonidae [2], the ΔTm is 1.9 °C.
`O=C(NCCN1CCOCC1)c1cccc2c1-c1ccccc1C2=O`: the Ka in the experiment with Salmonidae [1] was 1.6 10^5/M. For the same molecule, in the experiment on Salmonidae [2], the ΔTm was determined as 1.2 °C.
Turning to `O=C(NCCCCO)c1cccc2c1-c1ccccc1C2=O`, the ΔTm in the experiment with Salmonidae [2] was -0.8 °C.
Take `O=C(NCCCO)c1cccc2c1-c1ccccc1C2=O`: the Ka in the experiment with Salmonidae [1] was 8.4 10^3/M. Also, the ΔTm in the experiment with Salmonidae [2] is 3.1 °C.
Turning to `CN(C)CCCNC(=O)c1cccc2c1-c1ccccc1C2=O`, the Ka with Salmonidae [1] is 3.1 10^4/M. The ΔTm in the experiment on Salmonidae [2] was 2.1 °C.
With `O=C(NCCCN1CCOCC1)c1cccc2c1-c1ccccc1C2=O`, the Ka in the experiment with Salmonidae [1] is 2.3 10^4/M. In addition, in the experiment with Salmonidae [2], the ΔTm is -0.8 °C.
As to `O=C(NCCOCCO)c1cccc2c1-c1ccccc1C2=O`, the ΔTm with Salmonidae [2] was 0.2 °C.
Regarding `CN(C)CCNC(=O)c1cccc2c1-c1ccccc1C2=O`, the Ka with Salmonidae [1] was 3.3 10^3/M. Also, the ΔTm in the experiment with Salmonidae [2] was determined as 0.2 °C.

Broadly, the ΔTm is the change in melting temperature against a reference sample.

These data come from ChEMBL document CHEMBL1147214, “Tetraplex DNA specific ligands based on the fluorenone-carboxamide scaffold” (Bioorg Med Chem Lett, 2007).
